From PMC9295122, “Sialic Acid Derivatives Inhibit SiaT Transporters and Delay Bacterial Growth” (ACS Chemical Biology, 2022)
Where two headings read alike, the source gives them in different places.

How the values were obtained:
Plasma stability, mouse = format: in vitro ADME; conditions: 1 μM, 37 °C
Description: (§1) The reaction was started by the addition of the compound to blank plasma in LC vials after preincubation at 37 °C. The initial compound concentration was 1 μM. The reaction was stopped by the addition of ACN at seven time points (0, 0.5, 1, 2, 4, 6, and 23 h). Time point 0 h was about 15–20 s after spiking the plasma with the compound. The samples were centrifuged and the supernatant diluted and analyzed by LC–MS/MS to determine the % of compound remaining relative to the initial concentration of compound.

[1] = Plasma-protein binding by RED, rat; format: in vitro ADME; conditions: pH 7.2, read-out: Plasma-protein binding by RED (% unbound compound, average n=2)
Description: The assay was run in a deep well plate containing RED inserts with semipermeable dialysis membranes. The reaction was started by adding the compounds to a blank plasma in a 5 μM concentration. Opposite to the blank plasma was a compartment containing isotonic sodium–phosphate buffer (pH 7.2) separated from the plasma by the membrane. The plate was equilibrated in a water bath at 37 °C for 4 h. Samples from both the plasma and the buffer side were matrix compensated before protein precipitation. The samples were centrifuged, and the supernatants were diluted and analyzed by LC–MS/MS to determine the % unbound compound. Two incubations per compound per species.

Plasma stability, dog = format: in vitro ADME; conditions: 1 μM, 37 °C
Description: as §1

Plasma stability, human = format: in vitro ADME; conditions: 1 μM, 37 °C
Description: as §1

PmSiaT = molecular target: T1, PmSiaT (Proteus mirabilis, UniProt B4EZY7); test: nanoDSF thermal shift assay, PmSiaT; format: binding; conditions: for Average 1 / Average 2 / Average 3 / Replicate 1 / Replicate 2 / Replicate 3: PmSiaT Tm; for Average 1: average of experiment 1; for Average 2: average of experiment 2; for Average 3: average of experiment 3; for Replicate 1: experiment 1, second capillary; for Replicate 1 / Replicate 2 / Replicate 3 / Tm 1 / Tm2 / Tm 3 / Tm average overall / ΔTm at 1250 µM: 1.25 mM; for Replicate 2: experiment 2, second capillary; for Replicate 3: experiment 3, second capillary; for Tm 1: experiment 1, first capillary; for Tm2: experiment 2, first capillary; for Tm 3: experiment 3, first capillary; for Tm average overall / ΔTm at 1250 µM: three experiments; for ΔTm at 1250 µM: vs Neu5Ac, read-out: ΔTm average overall
T1 construct: made in house
T1 sequence (B4EZY7 1-496): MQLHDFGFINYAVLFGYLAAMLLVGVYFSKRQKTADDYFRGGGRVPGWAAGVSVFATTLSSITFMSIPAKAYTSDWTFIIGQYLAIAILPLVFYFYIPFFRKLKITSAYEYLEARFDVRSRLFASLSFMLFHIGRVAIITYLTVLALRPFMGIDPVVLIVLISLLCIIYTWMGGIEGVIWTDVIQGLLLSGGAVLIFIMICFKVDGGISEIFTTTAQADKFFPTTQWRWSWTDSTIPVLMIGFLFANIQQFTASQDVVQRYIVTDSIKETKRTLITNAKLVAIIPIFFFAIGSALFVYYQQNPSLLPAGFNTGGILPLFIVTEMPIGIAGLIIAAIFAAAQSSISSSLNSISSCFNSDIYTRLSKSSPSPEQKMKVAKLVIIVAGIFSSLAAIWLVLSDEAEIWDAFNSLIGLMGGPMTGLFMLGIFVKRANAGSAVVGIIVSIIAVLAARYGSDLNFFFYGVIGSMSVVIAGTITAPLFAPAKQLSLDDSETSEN
In short: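 Protein at 2 μM in PBS with 0.0174% (w/v) DDM and ligand at 1.25 mM were heated from 25 to 95 °C at 1 °C/min, with 330/350 nm fluorescence ratio and its first derivative giving Tm. ΔTm is relative to the Neu5Ac Tm, averaged over 3 experiments with 2 capillaries each.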

[2] = PmSiaT, experiment 1, vs Neu5Ac, read-out: ΔTm 1
[3] = PmSiaT, experiment 2, vs Neu5Ac, read-out: ΔTm 2
[4] = nanoDSF, relative to Neu5Ac, ligand 1.25 mM, <−2.0 °C nonbinder, read-out: PmSiaT ΔTm
[5] = PmSiaT, experiment 3, vs Neu5Ac, read-out: ΔTm 3

Row | SMILES | In vitro plasma stability (% compound remaining after 23 h) (Plasma stability, mouse) [%] | fraction unbound at 4 h, 5 μM [1] | In vitro plasma stability (% compound remaining after 23 h) (Plasma stability, dog) [%] | In vitro plasma stability (% compound remaining after 23 h) (Plasma stability, human) [%] | Average 1 (PmSiaT) [°C] | Average 2 (PmSiaT) [°C] | Average 3 (PmSiaT) [°C] | Replicate 1 (PmSiaT) [°C] | Replicate 2 (PmSiaT) [°C] | Replicate 3 (PmSiaT) [°C] | Tm 1 (PmSiaT; PmSiaT) [°C] | ΔTm (PmSiaT; [2]) [°C] | Tm2 (PmSiaT; PmSiaT) [°C] | ΔTm (PmSiaT; [3]) [°C] | Tm 3 (PmSiaT; PmSiaT) [°C] | Tm average overall (PmSiaT; PmSiaT) [°C] | ΔTm at 1250 µM (PmSiaT; PmSiaT) [°C] | ΔTm (PmSiaT; [4]) [°C] | ΔTm (PmSiaT; [5]) [°C]
1 | CC(=O)NC1C(OCc2ccccc2)CC(O)(C(=O)O)OC1C(O)C(O)CO (centres unmarked) [Compound 3a] | 100 | 0.72 | 100 | 100 | 54.6 | 53.8 | 54.1 | 54.6 | 53.9 | 54.2 | 54.5 | 5.6 | 53.7 | 4.6 | 54.0 | 54.2 | 5 | 4.8 ± 0.5 | –
2 | CC(=O)NC1C(OCc2cc(F)cc(F)c2)CC(O)(C(=O)O)OC1C(O)C(O)CO (centres unmarked) [Compound 3e] | 100 | 0.67 | 100 | 100 | 56.7 | 55.2 | 56.1 | 56.8 | 55.2 | 56.1 | 56.7 | 7.7 | 55.2 | 6 | 56.0 | 56.0 | 6.8 | 6.8 ± 0.9 | 6.8
3 | CC(=O)NC1C(OCc2cc(Br)cc(Br)c2)CC(O)(C(=O)O)OC1C(O)C(O)CO (centres unmarked) [Compound 3f] | 100 | 0.21 | 81 | 91 | – | 62.8 | 63.7 | 64.2 | 63.0 | 63.6 | 63.9 | 15 | 62.6 | 13.6 | 63.8 | 63.5 | – | 14.3 | –
4 | CC(=O)N[C@H]1[C@H]([C@H](O)[C@H](O)CO)OC(O)(C(=O)O)C[C@@H]1O (some centres unmarked) [Neu5Ac, 5-N-acetyl neuraminic acid, reference compound] | – | – | – | – | 49.0 | 49.2 | 49.3 | 48.8 | 49.2 | 49.3 | 49.2 | 0 | 49.1 | 0 | 49.3 | 49.1 | 0 | 0 | 0
